Measurements as given in patent publication US20100298141A1, “SUBSTITUTED PYRIDINE N-OXIDE HERBICIDES” (E. I. DU PONT DE NEMOURS AND COMPANY, priority 2007, published 2010).

Experiments:
corn = experiment: Test A pre-/postemergence greenhouse test; format: in vivo, Zea mays; settings: for Corn plant response rating: 0 to 100 scale; for Plant response rating, Corn: 0 to 100 scale where 0 is no effect and 100 is complete control
Summary of the method: (§1)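 Visual injury ratings against untreated controls, taken roughly ten days after treatment in greenhouse. Plants were sprayed postemergence at one- to two-leaf stage (2–10 cm tall); at the same time, seeded loam/sand soil received a directed preemergence spray. Formulation: non-phytotoxic solvent mixture with surfactant.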

lambsquarters = experiment: Test C pre-/postemergence test; format: in vivo, Chenopodium album; settings: Preemergence; for Lambsquarters plant response rating: 62 g ai/ha, scale 0 to 100; for Plant response rating, Lambsquarters: 31 g ai/ha, scale 0 to 100 (0 no effect, 100 complete control)
Summary of the method: (§2)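 Compounds in a non-phytotoxic solvent with surfactant applied preemergence to seeded pots and, at the same time, postemergence to plants 2–18 cm tall (1- to 4-leaf stage). Paddy tests: pots flooded to 3 cm, compound applied into the water, depth held throughout.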

rice = experiment: Test C flooded paddy test; format: in vivo, Oryza sativa; settings: Flood
Summary of the method: (§3)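 Pots were flooded to 3 cm above the soil surface at treatment, compound applied directly to the paddy water, and that depth held throughout. Plants were kept in a greenhouse for 13 to 15 days, then visually rated against untreated controls.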

velvetleaf [1] = experiment: Test C pre-/postemergence test; format: in vivo, Abutilon theophrasti; settings: Preemergence; for Velvetleaf plant response rating: 62 g ai/ha, scale 0 to 100; for Plant response rating, Velvetleaf: 31 g ai/ha, scale 0 to 100 (0 no effect, 100 complete control)
Summary of the method: as §2

redroot pigweed = experiment: Test A pre-/postemergence greenhouse test; format: in vivo, Amaranthus retroflexus; settings: for Pigweed plant response rating: 0 to 100 scale; for Plant response rating, Pigweed: 0 to 100 scale where 0 is no effect and 100 is complete control
Summary of the method: as §1

duck salad = experiment: Test C flooded paddy test; format: in vivo, Heteranthera limosa; settings: Flood
Summary of the method: as §3

Goosegrass = experiment: Test C pre-/postemergence test; format: in vivo, Eleusin indica; settings: Preemergence; for Goosegrass plant response rating: 62 g ai/ha, scale 0 to 100; for Plant response rating, Goosegrass: 31 g ai/ha, scale 0 to 100 (0 no effect, 100 complete control); for Plant response rating (0 to 100), Goosegrass: 250 g ai/ha
Summary of the method: as §2

bermudagrass = experiment: Test C pre-/postemergence test; format: in vivo, Cynodon dactylon; settings: for Plant response rating, Bermudagrass: 31 g ai/ha; for Plant response rating (0 to 100), Bermudagrass: 250 g ai/ha
Summary of the method: as §2

giant foxtail [2] = experiment: Test A pre-/postemergence greenhouse test; format: in vivo, Setaria faberi; settings: for Foxtail, Giant plant response rating: 0 to 100 scale; for Plant response rating, Foxtail, Giant: 0 to 100 scale where 0 is no effect and 100 is complete control
Summary of the method: as §1

wheat = experiment: Test A pre-/postemergence greenhouse test; format: in vivo, Triticum aestivum; settings: for Wheat plant response rating: 0 to 100 scale; for Plant response rating, Wheat: 0 to 100 scale where 0 is no effect and 100 is complete control
Summary of the method: as §1

common ragweed = experiment: Test C pre-/postemergence test; format: in vivo, Ambrosia elation; settings: Preemergence; for Ragweed plant response rating: 62 g ai/ha, scale 0 to 100; for Plant response rating, Ragweed: 31 g ai/ha, scale 0 to 100 (0 no effect, 100 complete control)
Summary of the method: as §2

johnsongrass = experiment: Test C pre-/postemergence test; format: in vivo, Sorghum halepense; settings: Preemergence; for Johnsongrass plant response rating: 62 g ai/ha, scale 0 to 100; for Plant response rating, Johnsongrass: 31 g ai/ha, scale 0 to 100 (0 no effect, 100 complete control); for Plant response rating (0 to 100), Johnsongrass: 250 g ai/ha
Summary of the method: as §2

eastern black nightshade = experiment: Test C pre-/postemergence test; format: in vivo, Solanum ptycanthum; settings: Preemergence; for Nightshade plant response rating: 62 g ai/ha, scale 0 to 100; for Plant response rating, Nightshade: 31 g ai/ha, scale 0 to 100 (0 no effect, 100 complete control)
Summary of the method: as §2

giant foxtail [3] = experiment: Test C pre-/postemergence test; format: in vivo, Setaria faberii; settings: Preemergence; for Foxtail, Giant plant response rating: 62 g ai/ha, scale 0 to 100; for Plant response rating, Foxtail, Giant: 31 g ai/ha, scale 0 to 100 (0 no effect, 100 complete control); for Plant response rating (0 to 100), Foxtail, Giant: 250 g ai/ha
Summary of the method: as §2

barnyardgrass = experiment: Test C flooded paddy test; format: in vivo, Echinochloa crus-galli; settings: Flood
Summary of the method: as §3

velvetleaf [4] = experiment: Test A pre-/postemergence greenhouse test; format: in vivo, Abutilon theophrasti; settings: for Velvetleaf plant response rating: 0 to 100 scale; for Plant response rating, Velvetleaf: 0 to 100 scale where 0 is no effect and 100 is complete control
Summary of the method: as §1

wild oat = experiment: Test C pre-/postemergence test; format: in vivo, Avena fatua; settings: Preemergence; for Oat, Wild plant response rating: 62 g ai/ha, scale 0 to 100; for Plant response rating, Oat, Wild: 31 g ai/ha, scale 0 to 100 (0 no effect, 100 complete control)
Summary of the method: as §2

Surinam grass = experiment: Test C pre-/postemergence test; format: in vivo, Brachiaria decumbens; settings: Preemergence; for Surinam Grass plant response rating: 62 g ai/ha, scale 0 to 100; for Plant response rating, Surinam Grass: 31 g ai/ha, scale 0 to 100 (0 no effect, 100 complete control)
Summary of the method: as §2

[5] = Postemergence, 125 g ai/ha, 0 is no effect, 100 is complete control
[6] = Postemergence, 500 g ai/ha, 0 is no effect, 100 is complete control
[7] = Preemergence, 125 g ai/ha, 0 no effect, 100 complete control
[8] = 31 g ai/ha, scale 0 to 100 (0 no effect, 100 complete control)
[9] = 62 g ai/ha, scale 0 to 100, 0 no effect, 100 complete control, 13 to 15 days
[10] = 125 g ai/ha, scale 0 to 100, 0 no effect, 100 complete control, 13 to 15 days
[11] = 250 g ai/ha, scale 0 to 100, 0 no effect, 100 complete control, 13 to 15 days
[12] = 62 g ai/ha, Preemergence, scale 0 to 100 (0 no effect, 100 complete control)
[13] = Preemergence, scale 0 to 100 (0 no effect, 100 complete control)
[14] = preemergence, 125 g ai/ha, scale 0 (no effect) to 100 (complete control)

Cn1nc(C(F)(F)F)c(C[S+]([O-])c2cc(C(F)(F)F)cc[n+]2[O-])c1Cl (racemic) [Compound 34]
Corn plant response rating (corn; [5]): 0 | Corn plant response rating (corn; [6]): 20 | Corn plant response rating (corn; [7]): 0 | Plant response rating, Corn (corn; Preemergence, 500 g ai/ha): 0 | Lambsquarters plant response rating (lambsquarters): 50 | Plant response rating, Lambsquarters (lambsquarters): 0 | Plant response rating, Rice (rice; [8]): 0 | Plant response rating, Rice (rice; [9]): 0 | Plant response rating, Rice (rice; [10]): 0 | Plant response rating, Rice (rice; [11]): 40 | Velvetleaf plant response rating (velvetleaf [1]): 70 | Plant response rating, Velvetleaf (velvetleaf [1]): 40 | Pigweed plant response rating (redroot pigweed; [5]): 60 | Pigweed plant response rating (redroot pigweed; [6]): 70 | Pigweed plant response rating (redroot pigweed; [7]): 100 | Plant response rating, Pigweed (redroot pigweed; Preemergence, 500 g ai/ha): 100 | Plant response rating, Ducksalad (duck salad; [8]): 0 | Plant response rating, Ducksalad (duck salad; [9]): 75 | Plant response rating, Ducksalad (duck salad; [10]): 80 | Plant response rating, Ducksalad (duck salad; [11]): 85 | Goosegrass plant response rating (Goosegrass): 98 | Plant response rating, Goosegrass (Goosegrass): 98 | Plant response rating (0 to 100), Goosegrass (Goosegrass): 100 | Bermudagrass plant response rating (bermudagrass; [12]): 100 | Plant response rating, Bermudagrass (bermudagrass; [13]): 75 | Plant response rating (0 to 100), Bermudagrass (bermudagrass; Preemergence): 100 | Bermudagrass plant response rating (bermudagrass; [14]): 100 | Foxtail, Giant plant response rating (giant foxtail [2]; [5]): 10 | Foxtail, Giant plant response rating (giant foxtail [2]; [6]): 60 | Foxtail, Giant plant response rating (giant foxtail [2]; [7]): 100 | Plant response rating, Foxtail, Giant (giant foxtail [2]; Preemergence, 500 g ai/ha): 100 | Wheat plant response rating (wheat; [5]): 0 | Wheat plant response rating (wheat; [6]): 0 | Wheat plant response rating (wheat; [7]): 30 | Plant response rating, Wheat (wheat; Preemergence, 500 g ai/ha): 50 | Ragweed plant response rating (common ragweed): 45 | Plant response rating, Ragweed (common ragweed): 45 | Johnsongrass plant response rating (johnsongrass): 85 | Plant response rating, Johnsongrass (johnsongrass): 85 | Plant response rating (0 to 100), Johnsongrass (johnsongrass): 100 | Nightshade plant response rating (eastern black nightshade): 100 | Plant response rating, Nightshade (eastern black nightshade): 85 | Foxtail, Giant plant response rating (giant foxtail [3]): 20 | Plant response rating, Foxtail, Giant (giant foxtail [3]): 20 | Plant response rating (0 to 100), Foxtail, Giant (giant foxtail [3]): 50 | Plant response rating, Barnyardgrass (barnyardgrass; [8]): 0 | Plant response rating, Barnyardgrass (barnyardgrass; [9]): 0 | Plant response rating, Barnyardgrass (barnyardgrass; [10]): 0 | Plant response rating, Barnyardgrass (barnyardgrass; [11]): 30 | Velvetleaf plant response rating (velvetleaf [4]; [5]): 30 | Velvetleaf plant response rating (velvetleaf [4]; [6]): 60 | Velvetleaf plant response rating (velvetleaf [4]; [7]): 30 | Plant response rating, Velvetleaf (velvetleaf [4]; Preemergence, 500 g ai/ha): 60 | Oat, Wild plant response rating (wild oat): 40 | Plant response rating, Oat, Wild (wild oat): 0 | Surinam Grass plant response rating (Surinam grass): 0 | Plant response rating, Surinam Grass (Surinam grass): 0

Cc1cc[n+]([O-])c(S(=O)(=O)Cc2c(C(F)(F)F)nn(C)c2OCC(F)(F)F)c1 [Compound 31]
Corn plant response rating (corn; [5]): 40 | Corn plant response rating (corn; [6]): 40 | Corn plant response rating (corn; [7]): 0 | Plant response rating, Corn (corn; Preemergence, 500 g ai/ha): 50 | Lambsquarters plant response rating (lambsquarters): 95 | Plant response rating, Lambsquarters (lambsquarters): 80 | Plant response rating, Rice (rice; [8]): 0 | Plant response rating, Rice (rice; [9]): 0 | Plant response rating, Rice (rice; [10]): 60 | Plant response rating, Rice (rice; [11]): 70 | Velvetleaf plant response rating (velvetleaf [1]): 100 | Plant response rating, Velvetleaf (velvetleaf [1]): 55 | Pigweed plant response rating (redroot pigweed; [5]): 80 | Pigweed plant response rating (redroot pigweed; [6]): 80 | Pigweed plant response rating (redroot pigweed; [7]): 100 | Plant response rating, Pigweed (redroot pigweed; Preemergence, 500 g ai/ha): 100 | Plant response rating, Ducksalad (duck salad; [8]): 45 | Plant response rating, Ducksalad (duck salad; [9]): 45 | Plant response rating, Ducksalad (duck salad; [10]): 80 | Plant response rating, Ducksalad (duck salad; [11]): 90 | Goosegrass plant response rating (Goosegrass): 100 | Plant response rating, Goosegrass (Goosegrass): 100 | Plant response rating (0 to 100), Goosegrass (Goosegrass): 100 | Bermudagrass plant response rating (bermudagrass; [12]): 100 | Plant response rating, Bermudagrass (bermudagrass; [13]): 100 | Plant response rating (0 to 100), Bermudagrass (bermudagrass; Preemergence): 100 | Bermudagrass plant response rating (bermudagrass; [14]): 100 | Foxtail, Giant plant response rating (giant foxtail [2]; [5]): 80 | Foxtail, Giant plant response rating (giant foxtail [2]; [6]): 90 | Foxtail, Giant plant response rating (giant foxtail [2]; [7]): 100 | Plant response rating, Foxtail, Giant (giant foxtail [2]; Preemergence, 500 g ai/ha): 100 | Wheat plant response rating (wheat; [5]): 50 | Wheat plant response rating (wheat; [6]): 60 | Wheat plant response rating (wheat; [7]): 60 | Plant response rating, Wheat (wheat; Preemergence, 500 g ai/ha): 80 | Ragweed plant response rating (common ragweed): 10 | Plant response rating, Ragweed (common ragweed): 0 | Johnsongrass plant response rating (johnsongrass): 100 | Plant response rating, Johnsongrass (johnsongrass): 100 | Plant response rating (0 to 100), Johnsongrass (johnsongrass): 100 | Nightshade plant response rating (eastern black nightshade): 95 | Plant response rating, Nightshade (eastern black nightshade): 95 | Foxtail, Giant plant response rating (giant foxtail [3]): 100 | Plant response rating, Foxtail, Giant (giant foxtail [3]): 100 | Plant response rating (0 to 100), Foxtail, Giant (giant foxtail [3]): 100 | Plant response rating, Barnyardgrass (barnyardgrass; [8]): 0 | Plant response rating, Barnyardgrass (barnyardgrass; [9]): 0 | Plant response rating, Barnyardgrass (barnyardgrass; [10]): 30 | Plant response rating, Barnyardgrass (barnyardgrass; [11]): 75 | Velvetleaf plant response rating (velvetleaf [4]; [5]): 50 | Velvetleaf plant response rating (velvetleaf [4]; [6]): 60 | Velvetleaf plant response rating (velvetleaf [4]; [7]): 30 | Plant response rating, Velvetleaf (velvetleaf [4]; Preemergence, 500 g ai/ha): 90 | Oat, Wild plant response rating (wild oat): 60 | Plant response rating, Oat, Wild (wild oat): 5 | Surinam Grass plant response rating (Surinam grass): 100 | Plant response rating, Surinam Grass (Surinam grass): 85
